Measured values as given in article PMC12348107, “Saponins from Oxybasis rubra (L.) S.Fuentes, Uotila & Borsh: Comparative Assessment of Cytotoxic Potential Against a Wide Panel of Cancer Cell Lines” (Molecules, 2025).
Several values for one entry are separate records, joined by “and”; a condition that tells them apart may be missing. Equal values may be shown once. Read-outs that look alike come from different tables or passages of the source. Marks after values point to notes of the source that are not given here.

Assays:
[1] = system: HTB-140 malignant melanoma cells; test: LDH cytotoxicity assay, HTB-140; assay type: cell-based; conditions: Homo sapiens, LDH test, read-out: Cytotoxic activity expressed as IC50
Method: (§1) The cytotoxic activity was tested on human cancer and normal cell lines, grouped in several panels: skin (malignant melanoma HTB-140, malignant melanoma A375, melanoma WM793, and normal keratinocytes HaCaT), prostate (prostate carcinoma DU-145, prostate carcinoma PC3, and prostate epithelial cells PNT2), thyroid (thyroid carcinoma FTC133, thyroid carcinoma, undifferentiated 8505C), gastrointestinal panel (hepatocellular carcinoma HepG2, colon adenocarcinoma Caco-2, and colon adenocarcinoma HT29), and single line of lung carcinoma A549. Cells were grown at standard conditions (37 °C, 5% CO2, relative humidity) and culture media (DMEM/F12 for PNT2, WM793, HT29, A549; DMEM Low Glucose for DU-145; DMEM High Glucose for A375, HaCaT, A549; MEM with NEAA for Caco-2), supplemented with 10% fetal bovine serum (FBS) and 1% antibiotic solution (10,000 U penicillin and 10 mg streptomycin/mL). All cell lines, cell culture media, and supplements were from Merck (Seelze, Germany).
(§2) Before the experiment, cells were seeded onto 96-well plates for 24 h, at a density of 1.5 × 10^4 cells/ well. Then the tested compounds (5–100 μg/mL) were added and incubated for 24 and 48 h. Cell viability was measured with the lactate dehydrogenase (LDH) assay by Clontech (Clontech, Mountain View, CA, USA), as described previously. The absorbance was measured at 490 nm using a Biotek Synergy microplate reader (BioTek Instruments Inc., Winooski, VT, USA). Cell viability was expressed as a percentage of dead cells. Each experiment was conducted in triplicate. Doxorubicin was used as a reference cytostatic.
(§3) The results were expressed as mean (±SD). Data were analyzed using Statistica v.13.3 (StatSoft, Tulsa, OK, USA). The IC50 values were calculated using OriginPro 2020b (64-bit) 9.7.5.184 (Academic) (OriginLab Corporation, Northampton, MA, USA). One-way analysis of variance (ANOVA) and the post-hoc Tukey multiple comparison test were used. The statistical significance was defined at the probability level of p < 0.05. Principal component analysis (PCA) and hierarchical cluster analysis (HCA) were performed using Statistica v.13.3 (StatSoft, Tulsa, OK, USA). Prior to PCA, the Bartlett’s sphericity test was conducted, and the Kaiser-Meyer-Olkin Measure of Sampling Adequacy index (KMO) was examined. In the simple model, for each compound tested (1–4), the cell lines were the cases, and the different concentrations of the compound were the parameters. This was followed by a PCA model in which the cell lines were the parameters, and the compounds (at different concentrations) were the cases. All PCA models were based on a correlation matrix. Hierarchical cluster analysis (CA) based on standardized data was performed using Ward’s method and Euclidean distance. The results were grouped based on Mojena’s rule.

[2] = system: A375 malignant melanoma cells; test: LDH cytotoxicity assay, A375; assay type: cell-based; conditions: Homo sapiens, A-375, LDH test, read-out: Cytotoxic activity expressed as IC50
Method: as §1, §2, §3

[3] = system: WM793 primary melanoma cells; test: LDH cytotoxicity assay, WM793; assay type: cell-based; conditions: Homo sapiens, LDH test, read-out: Cytotoxic activity expressed as IC50
Method: as §1, §2, §3

[4] = LDH cytotoxicity assay, HaCaT; assay type: cell-based, human; conditions: human, HaCaT normal keratinocytes, HaCaT normal cells, LDH test, read-out: Cytotoxic activity expressed as IC50
Method: as §1, §2, §3

[5] = system: HaCaT normal keratinocytes; test: LDH cytotoxicity assay, HaCaT; assay type: cell-based, human; conditions: HaCaT normal cells, 48 h incubation, LDH test
Method: as §1, §2, §3

[6] = system: DU-145 metastatic prostate carcinoma cells; test: LDH cytotoxicity assay, DU-145; assay type: cell-based, human; conditions: for IC50: Homo sapiens, LDH test, read-out: Cytotoxic activity expressed as IC50
Method: as §1, §2, §3

[7] = system: PC3 metastatic prostate carcinoma cells; test: LDH cytotoxicity assay, PC3; assay type: cell-based; conditions: Homo sapiens, LDH test, read-out: Cytotoxic activity expressed as IC50
Method: as §1, §2, §3

[8] = LDH cytotoxicity assay, PNT2; assay type: cell-based, human; conditions: human, PNT2 prostate epithelial cells (normal), PNT2 normal cells, LDH test, read-out: Cytotoxic activity expressed as IC50
Method: as §1, §2, §3

[9] = system: PNT2 prostate epithelial cells; test: LDH cytotoxicity assay, PNT2; assay type: cell-based, human; conditions: normal prostate epithelial cells
Method: as §1, §2, §3

[10] = system: FTC133 follicular thyroid carcinoma cells; test: LDH cytotoxicity assay, FTC133; assay type: cell-based; conditions: Homo sapiens, FTC-133, LDH test, read-out: Cytotoxic activity expressed as IC50
Method: as §1, §2, §3

[11] = system: 8505C undifferentiated thyroid carcinoma cells; test: LDH cytotoxicity assay, 8505C; assay type: cell-based; conditions: Homo sapiens, LDH test, read-out: Cytotoxic activity expressed as IC50
Method: as §1, §2, §3

[12] = system: Caco-2 colon adenocarcinoma cells; test: LDH cytotoxicity assay, Caco-2; assay type: cell-based; conditions: Homo sapiens, LDH test, read-out: Cytotoxic activity expressed as IC50
Method: as §1, §2, §3

[13] = system: HT29 colon adenocarcinoma cells; test: LDH cytotoxicity assay, HT29; assay type: cell-based; conditions: Homo sapiens, HT-29, LDH test, read-out: Cytotoxic activity expressed as IC50
Method: as §1, §2, §3

[14] = system: HepG2 hepatocellular carcinoma cells; test: LDH cytotoxicity assay, HepG2; assay type: cell-based; conditions: Homo sapiens, LDH test, read-out: Cytotoxic activity expressed as IC50
Method: as §1, §2, §3

[15] = system: A549 lung carcinoma cells; test: LDH cytotoxicity assay, A549; assay type: cell-based, human; conditions: LDH test; for IC50: Homo sapiens, read-out: Cytotoxic activity expressed as IC50
Method: as §1, §2, §3

What does the source list for `CC1(C)CC[C@]2(C(=O)O[C@@H]3O[C@H](CO)[C@@H](O)[C@H](O)[C@H]3O)CC[C@]3(C)C(=CC[C@@H]4[C@@]5(C)CC[C@H](O[C@@H]6O[C@H](CO)[C@@H](O)[C@H](O[C@@H]7O[C@H](CO)[C@@H](O)[C@H](O)[C@H]7O)[C@H]6O)[C@@](C)(CO)[C@@H]5CC[C@]43C)[C@@H]2C1` [Compound 2]?
IC50 ([1]; HTB-140, 24 h incubation): > 100 µg/mL; IC50 ([1]; HTB-140, 48 h incubation): > 100 µg/mL; IC50 ([2]; A375, 24 h incubation): 33.9 µM and 32.5 µg/mL; IC50 ([2]; A375, 48 h incubation): 31.4 µM and 30.1 µg/mL; IC50 ([3]; WM793, 24 h incubation): 14.4 µM and 13.8 µg/mL; IC50 ([3]; WM793, 48 h incubation): 6.79 µM and 6.52 µg/mL; IC50 at 24 h ([4]; 24 h incubation): 46.8 µM and 44.9 µg/mL; IC50 at 48 h ([4]; 48 h incubation): 41.6 µM and 39.9 µg/mL; Cytotoxic activity expressed as IC50 [5]: 39.93 ± 0.52 ^b µg/mL; Toxicity against DU-145, in words ([6]; DU-145): moderate toxicity; IC50 ([6]; DU-145, 24 h incubation): 33.3 µM and 32 µg/mL; IC50 ([6]; DU-145, 48 h incubation): 22 µM and 21.1 µg/mL; IC50 ([7]; PC3, 24 h incubation): > 100 µg/mL; IC50 ([7]; PC3, 48 h incubation): 69.8 µM and 67 µg/mL; IC50 at 24 h ([8]; 24 h incubation): > 100 µg/mL; IC50 at 48 h ([8]; 48 h incubation): > 100 µg/mL; IC50 ([9]; Homo sapiens, PNT2, incubation time not given, read-out: IC50 against normal prostate epithelial cells): > 100 µg/mL; Toxicity to normal prostate epithelial cells, in words [9]: non-toxic; IC50 ([10]; FTC133, 24 h incubation): 42.9 µM and 41.1 µg/mL; IC50 ([10]; FTC133, 48 h incubation): 23.5 µM and 22.5 µg/mL; IC50 ([11]; 24 h incubation): > 100 µg/mL; IC50 ([11]; 48 h incubation): > 100 µg/mL; IC50 ([12]; Caco-2, 24 h incubation): > 100 µg/mL; IC50 ([12]; Caco-2, 48 h incubation): 38.4 µM and 36.8 µg/mL; IC50 ([13]; HT29, 24 h incubation): > 100 µg/mL; IC50 ([13]; HT29, 48 h incubation): 66.5 µM and 63.8 µg/mL; IC50 ([14]; HepG2, 24 h incubation): 98 µM and 94 µg/mL; IC50 ([14]; HepG2, 48 h incubation): 63 µM and 60.5 µg/mL; Cytotoxic activity expressed as IC50 ([15]; A549, 48 h incubation): 8.23 ± 0.29 ^a µg/mL; IC50 ([15]; A549, 24 h, A549, 24 h incubation): 13.8 µM and 13.2 µg/mL; IC50 ([15]; A549, 48 h, A549, 48 h incubation): 8.58 µM and 8.24 µg/mL
